The record followed here is patent publication US20080295189A1, “Construction of Arterial Occlusive Disease Animal Model” (JAPAN HEALTH SCIENCES FOUNDATION, priority 2004, published 2008).

The assay has as its system blood of a crab-eating macaque. In words: Degree of coagulation of blood with coagulating agents (autologous blood clot formation). The note with it: blood in catheter, incubated 24 hours at 37° C., versus blood coagulated alone. The procedure:
As coagulating agents, ADP and thrombin were used to examine the degree of coagulation. ADP was used at concentrations of 30 and 100 μg/ml (without thrombin at both concentrations), and thrombin at concentrations of 0.5 and 10% (w/v) (without ADP at both concentrations). Blood was drawn from the ventral tail artery of a crab-eating macaque, and was placed into a catheter with or without adding a coagulating agent, incubated for 24 hours at 37° C., and then pushed out to observe the condition of coagulation. As control was used a sample to which neither of the coagulating agents was added (blood which was coagulated alone). The results were shown in the left panel of FIG. 3. […] Next, a blood clot which was obtained by incubating blood for 24 hours at 37° C. with 100 μg of ADP and 10% (w/v) of thrombin was immersed in a povidone-iodine solution, followed by X-ray photography. As shown in the right panel of FIG. 3, there was observed a shade corresponding to the blood clot, allowing one to identify the location of a blood clot be means of an X-ray photographic apparatus.

For `Nc1ncnc2c1ncn2[C@@H]1O[C@H](COP(=O)(O)OP(=O)(O)O)[C@@H](O)[C@H]1O` [ADP, adenosine diphosphate], for the setting “ADP 30 and 100 μg/ml without thrombin”, the condition of coagulation entry is “the higher concentration of ADP, the better coagulation took place”. Take Thrombin: under “thrombin 0.5 and 10% (w/v) without ADP”, the condition of coagulation result is “comparable coagulation at both 0.5 and 10% (w/v)”.
